Reference: patent US4708966A, “Novel anti-inflammatory agents, pharmaceutical compositions and methods for reducing inflammation” (The Procter & Gamble Company, priority 1986, dated 1987)

Assays:
[1] = test system: arachidonic acid-induced inflamed mouse ear; experiment: Arachidonic Acid-Induced Inflamed Mouse Ear Test; format: in vivo, Adult male Cox ICR mice
Description: Arachidonic Acid-Induced Inflamed Mouse Ear Test
All drugs are dissolved with arachidonic acid in the vehicle. At the end of 3 hours, animals are sacrificed by cervical dislocation and both ears are removed. A 5 mm punch biopsy is removed from both ears and is weighed to the nearest 0.1 mg on a Cahn electrobalance. Ten animals are used per group. The study usually consists of 4 to 6 groups, of which one is a control group which is treated on the left ear with only arachidonic acid in the vehicle. The results are expressed as percent inhibition of the swelling response compared to the control group. Statistical tests for significance between groups are made using a one way analysis of variance of the ear weight differences. ID50 values are determined by regression analysis.

oral analgesic activity = format: in vivo; conditions: "peripheral" type, compared to aspirin
Description: (§1) In order to determine and assess pharmacological activity, testing of these compounds in animals is carried out using various assays known to those skilled in the art. […] Examples of such known tests include the carrageenan rat edema test, the oxazolone-induced inflamed mouse ear test, and the arachidonic acid-induced inflamed mouse ear test. Anti-pyretic acitivity may be tested using art-known rat models, and analgesic acitivty may be tested in art-known models such as the acetylcholine model in mice, the Randall-Selitto model in rats, and the hot-plate test in mice. Another useful art-known test is the adjuvant arthritis test which is a useful model for assessing anti-inflammatory activity and anti-resorptive activity in a chronic, rather than acute, model.

rheumatoid arthritis = experiment: tablets in a patient suffering from rheumatoid arthritis; format: in vivo; conditions: tablet, 200 mg Compound 11, oral, two times daily
Description: Pharmaceutical Compositions in Tablet Form
Tablets are prepared by conventional methods, such as mixing and direct compaction, formulated as follows: […]

[2] = toxicity (acute oral toxicity); format: in vivo; conditions: test animals
inflammation = experiment: anti-inflammatory activity in animal models of inflammation; format: in vivo
Description: as §1
These and other appropriate tests for pharmacological activity are disclosed and/or referred to in U.S. Pat. No. 4,130,666, issued Dec. 19, 1978 to Moore; U.S. Pat. No. 4,440,784, issued Apr. 3, 1984 to Katsumi et al.; Japanese patent application No. 85/54315, published Mar. 28, 1985 by Katsumi et al.; European Patent Application Publication No. 59,090, published Sept. 1, 1982 by Yamanouchi Pharmaceutical Co., Ltd.; "Prostaglandin and Leukotriene Synthesis in Mouse Ears Inflamed by Arachidonic Acid", The Journal of Investigative Dermatology, 84, pp. 253-256 (1985); U.S. Pat. No. 4,431,656, issued Feb. […]

For `C#CCCCC(=O)c1cc(C(C)(C)C)c(O)c(C(C)(C)C)c1` [Compound 11, 4-(5'-hexynoyl)-2,6-di-t-butylphenol], the inhibition in vivo at 50 µg/ear ([1]; Mus musculus, 50 ug/ear topical, 3 hours, read-out: Percent Inhibition at 50 ug/ear topical dose) was 43.9%, the ID50 ([1]; topical, by regression analysis) was 20.7 ug/ear and the oral analgesic activity (oral analgesic activity) was “superior to aspirin”. For the same molecule, the reduction of inflammation (rheumatoid arthritis) was “significantly reduces the inflammation”, the acute oral toxicity [2] was “very low acute oral toxicity” and the “oral activity in several animal models of inflammation” value (inflammation) was “very good oral activity”.
